Assay results taken from patent US8183239B2, “Substituted piperazines and piperidines as modulators of the neuropeptide Y2 receptor” (Janssen Pharmaceutica NV, priority 2005, dated 2012).

Biological target: T1, Y2 receptors (Homo sapiens, UniProt P49146)
T1 construct: endogenous in cells; host or cells: KAN-Ts cells (membranes)
T1 sequence (P49146 1-381): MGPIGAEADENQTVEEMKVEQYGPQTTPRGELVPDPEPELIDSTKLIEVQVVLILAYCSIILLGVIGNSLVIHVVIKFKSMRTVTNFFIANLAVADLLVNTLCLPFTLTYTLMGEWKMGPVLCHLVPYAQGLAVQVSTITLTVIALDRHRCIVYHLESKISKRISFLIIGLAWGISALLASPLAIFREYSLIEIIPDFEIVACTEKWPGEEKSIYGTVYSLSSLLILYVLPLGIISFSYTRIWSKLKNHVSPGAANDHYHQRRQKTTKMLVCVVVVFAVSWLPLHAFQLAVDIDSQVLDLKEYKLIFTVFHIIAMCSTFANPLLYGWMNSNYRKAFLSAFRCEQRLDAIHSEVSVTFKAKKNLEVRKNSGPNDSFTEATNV
Assay: Radioligand binding assay ([125I]PYY, KAN-Ts cell membranes)
Details: Table 2, [125I]PYY 80 pM, average of results, read-out: IC50
Procedure, shortened: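 IC50 values are means of three to eight experiments run in duplicate, fitted sigmoidally against specific binding (defined by […]). Competition used 80 pM [^125I]PYY for 1 h at room temperature on KAN-Ts membranes carrying native Y2, with filtration and scintillation counting.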

Row | IC50 [nM] | Structure (SMILES)
1 | 107 | CCC(CC)C(=O)Nc1ccc(N2CCN(C(C(=O)N3CCC(F)(F)CC3)c3cccc(F)c3)CC2)c(F)c1 (stereo not drawn) [Example 196, N-(4-{4-[2-(4,4-Difluoro-piperidin-1-yl)-1-(3-fluoro-phenyl)-2-oxo-ethyl]-piperazin-1-yl}-3-fluoro-phenyl)-2-ethyl-butyramide]
2 | 350 | CCC(CC)C(=O)Nc1ccc(N2CCN(C(C(=O)N3CCC(F)(F)C3)c3ccc(F)cc3)CC2)c(F)c1 (stereo not drawn) [Example 198, N-(4-{4-[2-(3,3-Difluoro-pyrrolidin-1-yl)-1-(4-fluoro-phenyl)-2-oxo-ethyl]-piperazin-1-yl}-3-fluoro-phenyl)-2-ethyl-butyramide]
3 | 148 | CCC(CC)C(=O)Nc1ccc(N2CCN(C(C(=O)N3CCC(F)(F)C3)c3cccc(F)c3)CC2)c(F)c1 (stereo not drawn) [Example 199, N-(4-{4-[2-(3,3-Difluoro-pyrrolidin-1-yl)-1-(3-fluoro-phenyl)-2-oxo-ethyl]-piperazin-1-yl}-3-fluoro-phenyl)-2-ethyl-butyramide]
4 | 15 | CCC(CC)C(=O)Nc1ccc(N2CCN(C(C(=O)N(CC)CC)c3cc(Br)ccc3F)CC2)c(F)c1 (stereo not drawn) [Example 200, N-(4-{4-[(5-Bromo-2-fluoro-phenyl)-diethylcarbamoyl-methyl]-piperazin-1-yl}-3-fluoro-phenyl)-2-ethyl-butyramide]
5 | 900 | CCN(CC)C(=O)C(c1ccccc1)N1CCN(c2ccc(NC(=O)C3CCCC3)cn2)CC1 (stereo not drawn) [Example 202, Cyclopentanecarboxylic acid {6-[4-(diethylcarbamoyl-phenyl-methyl)-piperazin-1-yl]-pyridin-3-yl}-amide]
6 | 735 | CCC(CC)C(=O)Nc1ccc(N2CCN(C(C(=O)N(CC)CC)c3ccccc3)CC2)nc1 (stereo not drawn) [Example 203, N-{6-[4-(Diethylcarbamoyl-phenyl-methyl)-piperazin-1-yl]-pyridin-3-yl}-2-ethyl-butyramide]
7 | 400 | CCN(CC)C(=O)C(c1ccccc1)C1CCN(c2ccc(NC(=O)C3CCCC3)cn2)CC1 (stereo not drawn) [Example 204, Cyclopentanecarboxylic acid [4-(diethylcarbamoyl-phenyl-methyl)-3,4,5,6-tetrahydro-2H-[1,2′]bipyridinyl-5′-yl]-amide]
8 | 300 | CCC(CC)C(=O)Nc1ccc(N2CCC(C(C(=O)N(CC)CC)c3ccccc3)CC2)nc1 (stereo not drawn) [Example 205, N-[4-(Diethylcarbamoyl-phenyl-methyl)-3,4,5,6-tetrahydro-2H-[1,2′]bipyridinyl-5′-yl]-2-ethyl-butyramide]
9 | 20 | CCC(CC)C(=O)Nc1ccc(N2CCC(C(C(=O)N3CCC(F)CC3)c3ccccc3)CC2)c(F)c1 (stereo not drawn) [Example 206, 2-Ethyl-N-(3-fluoro-4-{4-[2-(4-fluoro-piperidin-1-yl)-2-oxo-1-phenyl-ethyl]-piperidin-1-yl}-phenyl)-butyramide]
10 | 70 | CCC(CC)C(=O)Nc1ccc(N2CCC(C(C(=O)N3CC(F)(F)C3)c3ccccc3)CC2)c(F)c1 (stereo not drawn) [Example 207, N-(4-{4-[2-(3,3-Difluoro-azetidin-1-yl)-2-oxo-1-phenyl-ethyl]-piperidin-1-yl}-3-fluoro-phenyl)-2-ethyl-butyramide]
11 | 20 | CCC(CC)C(=O)Nc1ccc(N2CCC(C(C(=O)N3CCC(F)(F)CC3)c3ccccc3)CC2)c(F)c1 (stereo not drawn) [Example 208, N-(4-{4-[2-(4,4-Difluoro-piperidin-1-yl)-2-oxo-1-phenyl-ethyl]-piperidin-1-yl}-3-fluoro-phenyl)-2-ethyl-butyramide]
12 | 100 | CCC(CC)C(=O)Nc1ccc(N2CCC(C(C(=O)N3CCC3)c3ccccc3)CC2)c(F)c1 (stereo not drawn) [Example 209, N-{4-[4-(2-Azetidin-1-yl-2-oxo-1-phenyl-ethyl)-piperidin-1-yl]-3-fluoro-phenyl}-2-ethyl-butyramide]
13 | 25 | CCC(CC)C(=O)Nc1ccc(N2CCC(C(C(=O)N3CCC(F)(F)C3)c3ccccc3)CC2)c(F)c1 (stereo not drawn) [Example 210, N-(4-{4-[2-(3,3-Difluoro-pyrrolidin-1-yl)-2-oxo-1-phenyl-ethyl]-piperidin-1-yl}-3-fluoro-phenyl)-2-ethyl-butyramide]
14 | 26 | CCC(CC)C(=O)Nc1ccc(N2CCC(C(C(=O)N3CCCC3)c3ccccc3)CC2)c(F)c1 (stereo not drawn) [Example 211, 2-Ethyl-N-{3-fluoro-4-[4-(2-oxo-1-phenyl-2-pyrrolidin-1-yl-ethyl)-piperidin-1-yl]-phenyl}-butyramide]
15 | 55 | CCC(CC)C(=O)Nc1ccc(N2CCC(C(C(=O)NC3CC3)c3ccccc3)CC2)c(F)c1 (stereo not drawn) [Example 212, N-{4-[4-(Cyclopropylcarbamoyl-phenyl-methyl)-piperidin-1-yl]-3-fluoro-phenyl}-2-ethyl-butyramide]
16 | 30 | CCC(CC)C(=O)Nc1ccc(N2CCC(C(C(=O)Nc3nc(C)cs3)c3ccccc3)CC2)c(F)c1 (stereo not drawn) [Example 213, 2-Ethyl-N-(3-fluoro-4-{4-[(4-methyl-thiazol-2-ylcarbamoyl)-phenyl-methyl]-piperidin-1-yl}-phenyl)-butyramide]
17 | 40 | CCC(CC)C(=O)Nc1ccc(N2CCC(C(C(=O)OC)c3ccccc3)CC2)c(F)c1 (stereo not drawn) [Example 214, {1-[4-(2-Ethyl-butyrylamino)-2-fluoro-phenyl]-piperidin-4-yl}-phenyl-acetic acid methyl ester]
18 | 100 | CCC(CC)C(=O)Nc1ccc(N2CCC(C(C(=O)N3CCCCC3)c3ccccc3)CC2)c(F)c1 (stereo not drawn) [Example 215, 2-Ethyl-N-{3-fluoro-4-[4-(2-oxo-1-phenyl-2-piperidin-1-yl-ethyl)-piperidin-1-yl]-phenyl}-butyramide]
19 | ≥ 10000 | CCC(CC)C(=O)Nc1ccc(N2CCC(C(C(=O)N3CCN(C)CC3)c3ccccc3)CC2)c(F)c1 (stereo not drawn) [Example 216, 2-Ethyl-N-(3-fluoro-4-{4-[2-(4-methyl-piperazin-1-yl)-2-oxo-1-phenyl-ethyl]-piperidin-1-yl}-phenyl)-butyramide]
20 | 10 | CCC(CC)C(=O)Nc1ccc(N2CCC(C(C(=O)N(CC)CC)c3ccccc3)CC2)c(C#N)c1 (stereo not drawn) [Example 217, N-{3-Cyano-4-[4-(diethylcarbamoyl-phenyl-methyl)-piperidin-1-yl]-phenyl}-2-ethyl-butyramide]
21 | 37 | CCC(CC)C(=O)Nc1ccc(N2CCC(C(C(=O)N(CC)CC)c3ccccc3)CC2)c(Br)c1 (stereo not drawn) [Example 219, N-{3-Bromo-4-[4-(diethylcarbamoyl-phenyl-methyl)-piperidin-1-yl]-phenyl}-2-ethyl-butyramide]
22 | 40 | CCN(CC)C(=O)C(c1ccccc1)C1CCN(c2ccc(NC(=O)C3CCCC3)cc2F)CC1 (stereo not drawn) [Example 220, Cyclopentanecarboxylic acid {4-[4-(diethylcarbamoyl-phenyl-methyl)-piperidin-1-yl]-3-fluoro-phenyl}-amide]

Row | Structure (SMILES) | IC50 [nM]
23 | CCC(CC)C(=O)Nc1ccc(N2CCN(C(C(=O)N(CC)CC)c3ccc(F)cc3F)CC2)c(F)c1 (stereo not drawn) [Example 197, N-(4-{4-[Diethylcarbamoyl-(2,4-difluoro-phenyl)-methyl]-piperazin-1-yl}-3-fluoro-phenyl)-2-ethyl-butyramide] | 150
24 | CCC(CC)C(=O)Nc1ccc(N2CCN(C(C(=O)N(CC)CC)c3ccc(F)c(F)c3)CC2)c(F)c1 (stereo not drawn) [Example 201, N-(4-{4-[Diethylcarbamoyl-(3,4-difluoro-phenyl)-methyl]-piperazin-1-yl}-3-fluoro-phenyl)-2-ethyl-butyramide] | 330
